Test results from patent publication US20250381269A1, “BISPECIFIC ANTIBODY BINDING EGFR AND B7-H3” (FORTVITA BIOLOGICS (SINGAPORE) PTE. LTD., priority 2022, published 2025).
pEC50, pIC50: −log10 of the molar value.

Tests used:
[1] = test system: NCI-H292 tumor-bearing mice; experiment: Anti-tumor efficacy in NCI-H292 tumor-bearing mice; format: in vivo; details: NCI-H292, Balb/c Nude mice, 5 mg/kg i.p. Q3-4D x4; for Tumor volume (mm^3): day not printed in column (TGI based on day 22); for Complete response rate @ Day 59: tumor volume of 0, 5 mice per group; for Tumor growth inhibition (%) @ Day 22: vs h-IgG 5 mg/kg
Description: SPF female Balb/c Nude mice (purchased from Beijing Vital River Laboratory Animal Technology Co., Ltd.) with certificate No. 110011211108430747 were used in the experiment.
NCI-H292 cells were routinely subcultured for the subsequent in-vivo experiment. The cells were collected by centrifugation. Then the NCI-H292 cells were resuspended in an equal-proportion mixture of PBS (1×) and Matrigel Matrix (Corning) to prepare a cell suspension with a cell concentration of 20×10^6 cells/mL. On day 0. 0.2 mL of the cell suspension was taken and subcutaneously inoculated to the right abdominal area of Balb/c Nude mice to establish NCI-H292 tumor-bearing mouse models.
Four days after the tumor cell inoculation, the tumor volume in each mouse was measured. The mice were grouped (with 5 mice in each group).
h-IgG. […] Administration was performed on days 4, 8, 12, and 15 after the inoculation of NCI-H292 cells. Mice were monitored for tumor volume and body weight twice a week. […] Since death of mice due to tumors occurred earlier in some groups, relative tumor growth inhibition (TG1%) was calculated based on the tumor volume on day 22 after the inoculation by the following formula:
TG1%=100%×(control group tumor volume−treatment group tumor volume)/(control group tumor volume−control group tumor volume before administration).
Tumor volume measurement: The maximum length of major axis (L) and maximum length of minor axis (W) of tumors were measured with a vernier caliper, and tumor volume was calculated by the following formula: V=L×W^2/2.
The mice were weighed using an electronic balance. Mice with tumor volumes above 2000 mm3 or weight loss above 20% were euthanized.

[2] = test system: SK-MES-1; experiment: ADCC report assay, SK-MES-1; format: cell-based; details: EGFR Amplification, KRAS WT, effector/target 10:1, 20 h
Method: (§1) In the ADCC report assay, ADCC effector cells ((Promega, G7102)) are engineered cells in which FcRIIIa (V158) receptor is overexpressed into Jurkat T cells, which rapidly respond to ADCC through the NFAT-RE driving element within the Jurkat T cells.
(§2) • (1) Tumor cells (cell lines listed in Table 3) and ADCC effector cells (Promega, G7102) were mixed well (1.5E4 cells: 1.5E5 cells/well/100 μL (1.5E5: 1.5E6 cells/mL)) according to an effector/target ratio (10:1), and added to a 96-well white plate (NUNC, 136101). • (2) The antibody molecules prepared in advance by dilution were added to the corresponding cell well plates, mixed well, and cultured at 37° C. with 5% CO2 for 20 h. • (3) The Bio-glo reagent (Promega, G755B) prepared in advance was added to the cell well plate, the plate was left to stand at room temperature for 10-15 min in the dark, and then the cells were detected by a multimode microplate reader (Molecular Devices, Spectra MAXi3).

[3] = test system: SK-MES-1; experiment: Proliferation inhibition experiment, SK-MES-1 (NSCLC); format: cell-based; details: EGFR Amplification, KRAS WT
Method: (§3) • (1) NSCLC: plated at 1500-2500 cells/100 μL in a 96-well low-adsorption plate (Corning, CLS7007-24EA) for 3D cell culture, in which the following cell lines and specific amounts were used: • NSCLC: 2000 cells/100 μL/well • NCI-H292: Cell Bank of the Chinese Academy of Sciences, SCSP-582 • NCI-H322: Cobioer, CBP60134 • NCI-H1650: ATCC, CRL-5883 • NCI-H1975: ATCC, CRL-5908 • SK-MES-1: CoBioer, CBP60152 • NCI-H1703: ATCC, HTB-43 • PC9+hB7H3: constructed as described above • CRC and HNSCC: plated at 1500-2000 cells/100 μL in a 96-well white-bottom plate (NUNC, 136101) for 2D cell culture, in which the following cell lines and specific amounts were used: • CRC: 1500 cells/100 μL/well • CCK-81: CoBioer, CBP60581 • HT-55: CoBioer, CBP60012 • H508: CoBioer, CBP60795 • LS180: CoBioer, CBP60034 • HNSCC: 1500 cells/100 μL/well • TE-1: CoBioer, CBP60655 • Colo680: CoBioer, CBP60452. (2) The antibody molecules prepared in advance by dilution were added to the corresponding cell well plate, mixed well, and cultured in an incubator at 37° C. with 5% CO2 for 5 days. • (3) After 5 days of continuous culture for proliferation inhibition assay, the Cell-Titer reagent (Promega, G7572) prepared in advance was added to cell wells, the plate was left to stand at room temperature for 15-25 min in the dark, and then CRC and HNSCC cells were directly detected by a multimode microplate reader (Molecular Devices, Spectra MAXi3). • (4) NSCLC: Cell-Titer and the cell mixture were transferred to a 96-well white-bottom plate (NUNC, 136101) and detected by a multimode microplate reader (Molecular Devices, Spectra MAXi3).

[4] = test system: H292; experiment: Proliferation inhibition experiment, H292 (NSCLC); format: cell-based; details: EGFR WT, KRAS WT
Method: as §3

[5] = test system: H1975; experiment: ADCC report assay, H1975; format: cell-based; details: EGFR L858R T790M, KRAS WT, effector/target 10:1, 20 h
Method: as §1, §2

[6] = test system: Colo-680N; experiment: Proliferation inhibition experiment, Colo-680N (HNSCC); format: cell-based; details: EGFR WT, KRAS WT
Method: as §3

[7] = test system: H1703; experiment: ADCC report assay, H1703; format: cell-based; details: EGFR Amplification, KRAS WT, effector/target 10:1, 20 h
Method: as §1, §2

Substance | Tumor volume (mm^3) [1] [mm^3] | Complete response rate @ Day 59 [1] | Tumor growth inhibition (%) @ Day 22 [1] [%] | pEC50 [2] | Max inhibition (%) Mean ± SD [3] [%] | pIC50 ([3]; 3D culture, 5 days) | Max inhibition (%) Mean ± SD [4] [%] | pIC50 ([4]; 3D culture, 5 days) | pEC50 [5] | Max inhibition (%) Mean ± SD [6] [%] | pIC50 ([6]; 2D culture, 5 days) | pEC50 [7]
amivantamab [JNJ372] | 177 | 0/5 | 100 | 9.84 | 66.1 ± 3.7 | 8.01 | 64.5 ± 2.5 | 6.85 | 10.20 | 26.5 ± 2.2 | 7.59 | 9.92
zalutumumab [Zalu mAb] | 96 | 1/5 | 107 | 10.96 | 67.8 ± 4.1 |  | 79.4 ± 1.6 |  | 10.54 | 24.9 ± 1.1 |  | 11.15
